Data published in patent US20160318987A1 (MEDIMMUNE LIMITED, priority 2013, published 2016).
*1 amine or outer side, *2 acyl side, *3 side chain or, on linkers, in order; H or OH if unused. Where a SMILES comes first, the peptide text is derived from it. Where no end group is shown, it is not given here. Side-chain parts run from the residue outwards. [ ]: non-standard residue; d: D form. The star is where a group is joined. ξ: configuration not given here. Palmitoyl(16-(5-tetrazolyl)) = O=C(CCCCCCCCCCCCCCCc1nnn[nH]1)*; X1 = CC(C)(c1ccccc1)[C@H](N[*:1])C(=O)[*:2]; γGlu = O=C(O)[C@H](CCC(=O)[*:2])N[*:1]; Palmitoyl = CCCCCCCCCCCCCCCC(=O)*; αMeF = C[C@](N)(Cc1ccccc1)C(=O)O; ξαMeF = CC(N)(Cc1ccccc1)C(=O)O; αMeK = C[C@](N)(CCCCN)C(=O)O; ξαMeK = CC(N)(CCCCN)C(=O)O; Aib = CC(C)(N)C(=O)O

Legend:
[1] = target: T1, hGLP-1R (Homo sapiens, UniProt P43220); assay: cAMP functional assay, cells expressing human GLP-1 receptor (primary assay); type: cell-based; conditions: n = 2
T1 construct: expressed in transfected cells
T1 sequence (P43220 24-463): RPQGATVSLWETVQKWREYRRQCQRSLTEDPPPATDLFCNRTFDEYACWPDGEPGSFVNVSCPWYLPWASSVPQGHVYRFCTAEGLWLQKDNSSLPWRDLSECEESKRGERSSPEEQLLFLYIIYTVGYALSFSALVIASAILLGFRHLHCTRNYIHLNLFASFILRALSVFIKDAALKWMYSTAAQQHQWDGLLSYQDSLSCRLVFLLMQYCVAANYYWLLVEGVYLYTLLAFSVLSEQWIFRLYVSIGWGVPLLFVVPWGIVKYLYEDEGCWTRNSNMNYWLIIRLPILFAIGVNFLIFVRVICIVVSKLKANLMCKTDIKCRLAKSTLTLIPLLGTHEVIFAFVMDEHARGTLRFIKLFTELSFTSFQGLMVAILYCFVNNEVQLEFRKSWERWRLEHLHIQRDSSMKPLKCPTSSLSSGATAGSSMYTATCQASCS

[2] = target: T2, hGIP-R (Homo sapiens, UniProt P48546); assay: cAMP functional assay, cells expressing human GIP receptor (primary assay); type: cell-based; conditions: n = 2
T2 construct: expressed in transfected cells
T2 sequence (P48546 22-466): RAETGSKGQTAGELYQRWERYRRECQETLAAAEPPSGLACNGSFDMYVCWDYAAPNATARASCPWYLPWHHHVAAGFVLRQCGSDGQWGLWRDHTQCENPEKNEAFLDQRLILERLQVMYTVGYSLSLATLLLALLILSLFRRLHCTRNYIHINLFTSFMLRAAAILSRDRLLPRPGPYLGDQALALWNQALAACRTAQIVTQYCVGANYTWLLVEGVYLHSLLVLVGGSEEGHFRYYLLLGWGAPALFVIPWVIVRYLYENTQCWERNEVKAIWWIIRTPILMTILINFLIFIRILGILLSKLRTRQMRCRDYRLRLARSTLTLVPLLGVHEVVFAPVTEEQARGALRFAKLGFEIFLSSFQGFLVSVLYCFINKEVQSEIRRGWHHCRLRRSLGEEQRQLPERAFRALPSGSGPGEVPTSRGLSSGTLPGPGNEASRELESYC

[3] = target: T3, hGluc-R (Homo sapiens, UniProt P47871); assay: cAMP functional assay, cells expressing human glucagon receptor (primary assay); type: cell-based; conditions: n = 2
T3 construct: expressed in transfected cells
T3 sequence (P47871 26-477): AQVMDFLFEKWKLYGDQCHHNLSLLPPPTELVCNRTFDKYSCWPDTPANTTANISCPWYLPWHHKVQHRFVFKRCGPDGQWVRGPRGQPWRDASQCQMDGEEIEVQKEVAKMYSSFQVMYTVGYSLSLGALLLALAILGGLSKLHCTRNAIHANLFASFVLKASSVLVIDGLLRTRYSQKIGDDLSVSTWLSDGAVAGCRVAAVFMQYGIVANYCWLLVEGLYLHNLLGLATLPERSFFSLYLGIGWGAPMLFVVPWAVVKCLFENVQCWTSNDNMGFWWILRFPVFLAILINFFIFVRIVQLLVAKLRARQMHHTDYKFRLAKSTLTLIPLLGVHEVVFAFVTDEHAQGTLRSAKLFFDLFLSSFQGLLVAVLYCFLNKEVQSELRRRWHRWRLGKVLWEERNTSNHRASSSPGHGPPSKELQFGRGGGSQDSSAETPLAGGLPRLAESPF

[4] = test system: DPP-IV, Neprilysin, Chymotrypsin, Trypsin, Pepsin; assay: enzyme resistance, protease panel (Table 2 description); type: in vitro ADME
Experimental: Peptides for evaluation were prepared to a concentration of 1.0 mg/mL solutions in either pure water, sterile saline for injection (0.9% w/v NaCl/water) or 1× PBS (Dulbecco). 100 μL (100 μg/mL peptide) of these solutions was added to 900 μL of each protease solution. Additional experiments were performed examining protein degradation during exposure to serum and gastric fluid. For serum studies, peptides were incubated with 50% female Sprague-Dawley strain rat serum (SD rat serum). For gastric fluid studies, peptides were incubated 1:1 (volume:volume), fresh rat gastric fluid.
The peptide and enzyme (or serum or gastric fluid) were co-incubated in a temperature regulated water bath at 37° C. for the duration of the experiment. During each experiment 100 μL aliquots (10 μg peptide) of the incubated peptide-enzyme mixture were withdrawn periodically, quenched by addition of an equal volume of 5% TFA (v/v) in 1:1 water/acetonitrile to arrest proteolytic activity, and analyzed by liquid chromatography-mass spectrometry (LC/MS): Agilent Polaris C8-A column (4.6×100 mm, 3 micron) using a linear binary gradient of 10-90% MeCN (0.1% TFA v/v) in water (0.1% TFA v/v) over 30 minutes at 1.5 mL min^−1 at ambient temperature. Analytes were detected by both UV absorption at 210 nm and ionization using a Waters 3100 mass detector (ESI^+ mode). New peptidic species (fragments) derived from enzymatic cleavage of peptides were analyzed post-process, and their molecular masses were used to identify the precise cleavage position (highlighting the scissile bond in each case).

EC50 [1] [nM]	EC50 [2] [nM]	EC50 [3] [nM]	Molecule	enzyme resistance (DPP-IV, Neprilysin, Chymotrypsin, Trypsin, Pepsin) [4]
0.0238	82.9	82.9	CC[C@H](C)[C@H](NC(=O)[C@](C)(Cc1ccccc1)NC(=O)[C@H](CCC(=O)O)NC(=O)[C@H](CCCCN)NC(=O)[C@H](C)NC(=O)[C@H](C)NC(=O)[C@H](CCC(N)=O)NC(=O)CNC(=O)[C@H](CCC(=O)O)NC(=O)[C@H](CC(C)C)NC(=O)[C@](C)(Cc1ccccc1)NC(=O)[C@H](CO)NC(=O)[C@H](CO)NC(=O)[C@@H](NC(=O)[C@H](CC(=O)O)NC(=O)[C@H](CO)NC(=O)[C@@H](NC(=O)[C@](C)(Cc1ccccc1)NC(=O)[C@H](CO)NC(=O)CNC(=O)[C@H](CCC(=O)O)NC(=O)C(C)(C)NC(=O)[C@@H](N)Cc1c[nH]cn1)[C@@H](C)O)C(C)C)C(=O)N[C@@H](C)C(=O)N[C@@](C)(Cc1ccccc1)C(=O)N[C@@H](CC(C)C)C(=O)N[C@H](C(=O)N[C@@H](CCCCN)C(=O)NCC(=O)NCC(=O)N[C@@H](CO)C(=O)N[C@@H](CO)C(=O)NCC(=O)N[C@@H](CO)C(=O)N[C@@H](CO)C(=O)NCC(=O)N[C@@H](CO)C(=O)N[C@@H](CO)C(=O)NCC(=O)N[C@@H](CCCCN)C(N)=O)C(C)C [SEQ ID NO: 48, H-(Aib)^2-EG-(S)^5-(α-MeF)^6-TSDV^10 SS-(α-MeF)^13-LE^15 GQAAK^20 E-(α-MeF)^22-IA-(α-MeF)^25 LVKG-(G)^30-(SSG)3-K] (H-H[Aib]EGS[αMeF]TSDVSS[αMeF]LEGQAAKE[αMeF]IA[αMeF]LVKGGSSGSSGSSGK-NH2)	–
0.00929	40.9	75.9	CCCCCCCCCCCCCCCC(=O)N[C@@H](CCC(=O)NCCCC[C@H](NC(=O)CNC(=O)[C@H](CO)NC(=O)[C@H](CO)NC(=O)CNC(=O)[C@H](CO)NC(=O)[C@H](CO)NC(=O)CNC(=O)[C@H](CO)NC(=O)[C@H](CO)NC(=O)CNC(=O)CNC(=O)[C@H](CCCCN)NC(=O)[C@@H](NC(=O)[C@H](CC(C)C)NC(=O)[C@](C)(Cc1ccccc1)NC(=O)[C@H](C)NC(=O)[C@@H](NC(=O)[C@](C)(Cc1ccccc1)NC(=O)[C@H](CCC(=O)O)NC(=O)[C@H](CCCCN)NC(=O)[C@H](C)NC(=O)[C@H](C)NC(=O)[C@H](CCC(N)=O)NC(=O)CNC(=O)[C@H](CCC(=O)O)NC(=O)[C@H](CC(C)C)NC(=O)[C@](C)(Cc1ccccc1)NC(=O)[C@H](CO)NC(=O)[C@H](CO)NC(=O)[C@@H](NC(=O)[C@H](CC(=O)O)NC(=O)[C@H](CO)NC(=O)[C@@H](NC(=O)[C@](C)(Cc1ccccc1)NC(=O)[C@H](CO)NC(=O)CNC(=O)[C@H](CCC(=O)O)NC(=O)C(C)(C)NC(=O)[C@@H](N)Cc1c[nH]cn1)[C@@H](C)O)C(C)C)[C@@H](C)CC)C(C)C)C(N)=O)C(=O)O [SEQ ID NO: 49, H-(Aib)^2-EG-(S)^5-(α-MeF)^6-TSDV^10 SS-(α-MeF)^13-LE^15 GQAAK^20 E-(α-MeF)^22-IA-(α-MeF)^25 LVKG-(G)^30-(SSG)3-K(Ε-γ-E-Palm)] (H-H[Aib]EGS[αMeF]TSDVSS[αMeF]LEGQAAKE[αMeF]IA[αMeF]LVKGGSSGSSGSSGK([γGlu-Palmitoyl])-NH2)	–
–	–	–	CCCCCCCCCCCCCCCC(=O)N[C@@H](CCC(=O)NCCCC[C@H](NC(=O)CNC(=O)CNC(=O)C(C)(CCCCN)NC(=O)[C@@H](NC(=O)[C@@H](NC(=O)C(C)(Cc1ccccc1)NC(=O)[C@H](C)NC(=O)[C@@H](NC(=O)C(C)(Cc1ccccc1)NC(=O)[C@H](CCC(=O)O)NC(=O)C(C)(CCCCN)NC(=O)[C@H](C)NC(=O)[C@H](C)NC(=O)[C@H](CCC(N)=O)NC(=O)CNC(=O)[C@H](CCC(=O)O)NC(=O)[C@H](CC(C)C)NC(=O)C(C)(Cc1ccccc1)NC(=O)[C@H](CO)NC(=O)[C@H](CO)NC(=O)[C@@H](NC(=O)[C@H](CC(=O)O)NC(=O)[C@H](CO)NC(=O)[C@@H](NC(=O)C(C)(Cc1ccccc1)NC(=O)[C@H](CO)NC(=O)CNC(=O)[C@H](CCC(=O)O)NC(=O)C(C)(C)NC(=O)[C@@H](N)Cc1c[nH]cn1)[C@@H](C)O)C(C)C)[C@@H](C)CC)C(C)C)C(C)C)C(N)=O)C(=O)O (stereo partly drawn) [SEQ ID NO: 54, H-(Aib)^2-EG-(S)^5-(α-MeF)^6-TSDV^10 SS-(α-MeF)^13-LE^15 GQAA-(α-MeK)^20 E-(α-MeF)^22-IA-(α-MeF)^25-(V)^26-V-(α-MeK)^28-G-(G)^30-K(Ε-γ-E-Palm)] (H-H[Aib]EGS[ξαMeF]TSDVSS[ξαMeF]LEGQAA[ξαMeK]E[ξαMeF]IA[ξαMeF]VV[ξαMeK]GGK([γGlu-Palmitoyl])-NH2)	Excellent enzyme resistance
0.0271	139	19.9	CC[C@H](C)[C@H](NC(=O)[C@](C)(Cc1ccccc1)NC(=O)[C@H](CCC(=O)O)NC(=O)[C@](C)(CCCCN)NC(=O)[C@H](C)NC(=O)[C@H](C)NC(=O)[C@H](CCC(N)=O)NC(=O)CNC(=O)[C@H](CCC(=O)O)NC(=O)[C@H](CC(C)C)NC(=O)[C@](C)(Cc1ccc(O)cc1)NC(=O)[C@H](CO)NC(=O)[C@H](CO)NC(=O)[C@@H](NC(=O)[C@H](CC(=O)O)NC(=O)[C@H](CO)NC(=O)[C@@H](NC(=O)[C@](C)(Cc1ccccc1)NC(=O)[C@H](CO)NC(=O)CNC(=O)[C@H](CCC(=O)O)NC(=O)C(C)(C)NC(=O)[C@@H](N)Cc1c[nH]cn1)[C@@H](C)O)C(C)C)C(=O)N[C@@H](C)C(=O)N[C@@](C)(Cc1c[nH]c2ccccc12)C(=O)N[C@@H](CC(C)C)C(=O)N[C@H](C(=O)N[C@@](C)(CCCCN)C(=O)NCC(=O)N[C@@](C)(CCCNC(=N)N)C(N)=O)C(C)C [SEQ ID NO: 57, H-(Aib)^2-EG-(S)^5-(α-MeF)^6-TSDV^10 SS-(α-MeY)^13-LE^15 GQAA-(α-MeK)^20 E-(α-MeF)^22-IA-(α-MeW)^25 LV-(α-MeK)^28-G-(α-MeR)^30]	–
0.0848	105	105	CCCCCCCCCCCCCCCC(=O)N[C@@H](CCC(=O)NCCCC[C@H](NC(=O)[C@](C)(CCCNC(=N)N)NC(=O)CNC(=O)[C@](C)(CCCCN)NC(=O)[C@@H](NC(=O)[C@H](CC(C)C)NC(=O)[C@](C)(Cc1c[nH]c2ccccc12)NC(=O)[C@H](C)NC(=O)[C@@H](NC(=O)[C@](C)(Cc1ccccc1)NC(=O)[C@H](CCC(=O)O)NC(=O)[C@](C)(CCCCN)NC(=O)[C@H](C)NC(=O)[C@H](C)NC(=O)[C@H](CCC(N)=O)NC(=O)CNC(=O)[C@H](CCC(=O)O)NC(=O)[C@H](CC(C)C)NC(=O)[C@](C)(Cc1ccc(O)cc1)NC(=O)[C@H](CO)NC(=O)[C@H](CO)NC(=O)[C@@H](NC(=O)[C@H](CC(=O)O)NC(=O)[C@H](CO)NC(=O)[C@@H](NC(=O)[C@](C)(Cc1ccccc1)NC(=O)[C@H](CO)NC(=O)CNC(=O)[C@H](CCC(=O)O)NC(=O)C(C)(C)NC(=O)[C@@H](N)Cc1c[nH]cn1)[C@@H](C)O)C(C)C)[C@@H](C)CC)C(C)C)C(N)=O)C(=O)O [SEQ ID NO: 58, H-(Aib)^2-EG-(S)^5-(α-MeF)^6-TSDV^10 SS-(α-MeY)^13-LE^15 GQAA-(α-MeK)^20 E-(α-MeF)^22-IA-(α-MeW)^25 LV-(α-MeK)^28-G-(α-MeR)^30-K(Ε-γ-E-Palm)]	–
98.9	98.9	98.9	CC[C@H](C)[C@H](NC(=O)[C@@H](NC(=O)[C@H](CCC(=O)O)NC(=O)[C@H](CCCCN)NC(=O)[C@H](C)NC(=O)[C@H](C)NC(=O)[C@H](CCC(N)=O)NC(=O)CNC(=O)[C@H](CCC(=O)O)NC(=O)[C@H](CC(C)C)NC(=O)[C@@H](NC(=O)[C@H](CO)NC(=O)[C@H](CO)NC(=O)[C@@H](NC(=O)[C@H](CC(=O)O)NC(=O)[C@H](CO)NC(=O)[C@@H](NC(=O)[C@@H](NC(=O)[C@@H](NC(=O)CNC(=O)[C@H](CCC(=O)O)NC(=O)C(C)(C)NC(=O)[C@@H](N)Cc1c[nH]cn1)[C@@H](C)O)C(C)(C)c1ccccc1)[C@@H](C)O)C(C)C)C(C)(C)c1ccccc1)C(C)(C)c1ccccc1)C(=O)N[C@@H](C)C(=O)N[C@H](C(=O)N[C@@H](CC(C)C)C(=O)N[C@H](C(=O)N[C@@H](CCCCN)C(=O)NCC(=O)N[C@@H](CCCNC(=N)N)C(N)=O)C(C)C)C(C)(C)c1ccccc1 [SEQ ID NO: 62, H-(Aib)^2-EGT^5-(β, β-di-Me-Phe)^6-TSDV^10 SS-(β, β-di-Me-Phe)^13-LE^15 GQAAK^20 E-(β, β-di-Me-Phe)^22-IA-(β,β-di-Me-Phe)^25 LVKGR^30] (H-H[Aib]EGT[X1]TSDVSS[X1]LEGQAAKE[X1]IA[X1]LVKGR-NH2)	–
–	–	–	H-(Aib)^2-EG-(S)^5-(α-MeF)^6-TSDV^10 SS-(α-MeF)^13-LE^15 GQAA-(α-MeK)^20 E-(α-MeF)22^-IA-(α-MeF)^25-(V)^26-V-(α-MeK)^28-G-(G)^30-K(Ε-γ-E-Tetrazolylpalm) (H[Aib]EGS[αMeF]TSDVSS[αMeF]LEGQAA[αMeK]E[αMeF]IA[αMeF]VV[αMeK]GGK([γGlu-Palmitoyl(16-(5-tetrazolyl))])) [SEQ ID NO: 55]	Excellent enzyme resistance
